Measurements taken from patent US20230096766A1, “AMINO ACID HAVING FUNCTIONAL GROUP CAPABLE OF INTERMOLECULAR HYDROGEN BONDING, PEPTIDE COMPOUND CONTAINING SAME AND METHOD FOR PRODUCTION THEREOF” (Chugai Seiyaku Kabushiki Kaisha, priority 2018, published 2023).
*1 amine or outer side, *2 acyl side, *3 side chain or, on linkers, in order; H or OH if unused. Where a SMILES comes first, the peptide text is derived from it. Bridges are numbered along the chain shown (N, C = ends). [ ]: non-standard residue; d: D form. The star is where a group is joined. NMeHph(3-OMe-4-CONHMe) = CNC(=O)c1ccc(CC[C@H](NC)C(=O)O)cc1OC; dhPhe(4-CONHMe,3-OMe) = CNC(=O)c1ccc(CC[C@@H](N)C(=O)O)cc1OC; hPhe(3-OMe,4-CONHMe) = CNC(=O)c1ccc(CC[C@H](N)C(=O)O)cc1OC; Glu(NHSO2Me) = CS(=O)(=O)NC(=O)CC[C@H](N)C(=O)O; NMePhe(3-Cl) = CN[C@@H](Cc1cccc(Cl)c1)C(=O)O; X9 = O=C([C@@H](CN[*:1])COCCO)[*:2]; Propyl(2,2-Me2,3-OH) = CC(C)(CO)C*; Hyp = O=C(O)[C@@H]1C[C@@H](O)CN1; NMeF = CN[C@@H](Cc1ccccc1)C(=O)O; NMeGABA = CN(CCCC(=O)[*:2])[*:1]; NMeI = CC[C@H](C)[C@H](NC)C(=O)O; NMeL = CN[C@@H](CC(C)C)C(=O)O; NMeV = CN[C@H](C(=O)O)C(C)C; NMeAbu = CC[C@H](NC)C(=O)O; NMeA = CN[C@@H](C)C(=O)O; Piperidide = C1CCN(*)CC1; Abu = CC[C@H](N)C(=O)O; CH2CMe2OH = CC(C)(O)C*; NBuGly = CCCCNCC(=O)O; Ethyl(2-OH) = OCC*; Sar = CNCC(=O)O; tBu = CC(C)(C)*

Assay: in vitro
Conditions: human

Compound	Papp (Caco-2, Caco-2)	Papp (Caco-2, Caco-2 (cm/sec))
CCCCN1CC(=O)N(C)[C@@H](CC(C)C)C(=O)N[C@@H](CCC(=O)NS(C)(=O)=O)C(=O)N(C)[C@@H](Cc2cccc(Cl)c2)C(=O)N(C)[C@@H](C(C)C)C(=O)N[C@H](C(=O)N2CCCCC2)CC(=O)N[C@H](CC(C)C)C(=O)N(C)[C@@H](Cc2cccc(Cl)c2)C(=O)N[C@@H](CC(C)C)C(=O)N(C)[C@@H](CC)C(=O)N[C@@H]([C@@H](C)O)C1=O [pd61] ([dL][NMePhe(3-Cl)]L[NMeAbu]T[NBuGly][NMeL][Glu(NHSO2Me)][NMePhe(3-Cl)][NMeV]D-Piperidide; lactam N-11)	< 0.094 ×10⁻⁶ cm/s	–
CCCCN1CC(=O)N(C)[C@@H](CC(C)C)C(=O)NC[C@@H](COCCO)C(=O)N(C)[C@@H](Cc2ccccc2)C(=O)N(C)[C@@H](CC(C)C)C(=O)N[C@H](C(=O)N2CCCCC2)CC(=O)N[C@H](CC(C)C)C(=O)N(C)[C@@H](CC(C)C)C(=O)N[C@@H](Cc2ccccc2)C(=O)N(C)[C@@H](CC(C)C)C(=O)N[C@@H]([C@@H](C)O)C1=O [AP128] ([dL][NMeL]F[NMeL]T[NBuGly][NMeL][X9][NMeF][NMeL]D-Piperidide; lactam N-11)	–	0.78 ×10⁻⁶ cm/s
CCCCN1CC(=O)N(C)[C@@H](Cc2cccc(Cl)c2)C(=O)N[C@@H](CCC(=O)NS(C)(=O)=O)C(=O)N(C)[C@@H](CC(C)C)C(=O)N[C@@H]([C@@H](C)O)C(=O)N(CCCC)CC(=O)N(C)[C@@H](Cc2ccccc2)C(=O)N(C)[C@@H](CC(C)C)C(=O)N[C@@H](CC(C)C)C(=O)N(C)[C@@H](CC(C)C)C(=O)N[C@H](C(=O)N2CCCCC2)CC1=O [pd66] ([NBuGly][NMePhe(3-Cl)][Glu(NHSO2Me)][NMeL]T[NBuGly][NMeF][NMeL]L[NMeL]D-Piperidide; lactam N-11)	0.09 ×10⁻⁶ cm/s	–
CCCCN1CC(=O)N(C)[C@@H](Cc2ccccc2)C(=O)N(C)[C@@H](CC(C)C)C(=O)N[C@H](CCc2ccc(C(=O)NC)c(OC)c2)C(=O)N(C)[C@@H](CC(C)C)C(=O)N[C@H](C(=O)N2CCCCC2)CC(=O)N(C)CC(=O)N(C)[C@@H](CC(C)C)C(=O)N[C@@H]([C@@H](C)CC)C(=O)N(C)[C@@H](CC(C)C)C(=O)N[C@@H]([C@@H](C)O)C1=O [AP215] ([Sar][NMeL]I[NMeL]T[NBuGly][NMeF][NMeL][dhPhe(4-CONHMe,3-OMe)][NMeL]D-Piperidide; lactam N-11)	–	0.43 ×10⁻⁶ cm/s
CC[C@H](C)[C@@H]1NC(=O)[C@H](CC(C)C)N(C)C(=O)CCCN(C)C(=O)C[C@@H](C(=O)N2CCCCC2)NC(=O)[C@H](CC(C)C)N(C)C(=O)[C@H](CC(C)C)N(C)C(=O)[C@H]([C@@H](C)O)NC(=O)[C@H](CC(C)C)N(C)C(=O)[C@H](COCC(C)(C)O)NC(=O)[C@H](Cc2cccc(Cl)c2)N(C)C(=O)[C@H](Cc2ccccc2)N(C)C1=O [AP04] ([NMeGABA][NMeL]I[NMeF][NMePhe(3-Cl)]S(CH2CMe2OH)[NMeL]T[NMeL][NMeL]D-Piperidide; lactam N-11)	–	0.53 ×10⁻⁶ cm/s
CC[C@@H]1NC(=O)[C@H](CCc2ccc(C(=O)NC)c(OC)c2)N(C)C(=O)[C@H](CC(C)C)N(C)C(=O)[C@H](CC(C)C)NC(=O)[C@H](C)N(C)C(=O)C[C@@H](C(=O)N2CCCCC2)NC(=O)[C@H](CC(C)C)N(C)C(=O)CN(C)C(=O)[C@H]([C@@H](C)O)NC(=O)[C@H](CC(C)C)N(C)C(=O)[C@H](Cc2ccccc2)N(C)C1=O [AP229] ([NMeA]L[NMeL][NMeHph(3-OMe-4-CONHMe)][Abu][NMeF][NMeL]T[Sar][NMeL]D-Piperidide; lactam N-11)	–	0.43 ×10⁻⁶ cm/s
CCCCN1CC(=O)N(C)[C@@H](Cc2ccccc2)C(=O)N(C)[C@@H](CC(C)C)C(=O)N[C@@H](CCc2ccc(C(=O)NC)c(OC)c2)C(=O)N(C)[C@@H](CC(C)C)C(=O)N[C@H](C(=O)N2CCCCC2)CC(=O)N(C)CC(=O)N(C)[C@@H](CC(C)C)C(=O)N[C@@H]([C@@H](C)CC)C(=O)N(C)[C@@H](CC(C)C)C(=O)N[C@@H]([C@@H](C)O)C1=O [AP207] ([Sar][NMeL]I[NMeL]T[NBuGly][NMeF][NMeL][hPhe(3-OMe,4-CONHMe)][NMeL]D-Piperidide; lactam N-11)	–	0.51 ×10⁻⁶ cm/s
CC[C@H](C)[C@H]1C(=O)N2CCC[C@H]2C(=O)N(C)[C@@H](CC(C)C)C(=O)N[C@@H](COC(C)(C)C)C(=O)N2C[C@H](OCCO)C[C@H]2C(=O)N[C@@H]([C@@H](C)O)C(=O)N(C)[C@@H](CC(C)C)C(=O)N(C)[C@@H](CC(C)C)C(=O)N(C)[C@@H](CC(C)C)C(=O)N[C@H](C(=O)N2CCCCC2)CC(=O)N[C@H](CC(C)C)C(=O)N1C [AP238] ([dL][NMeI]P[NMeL]S(tBu)[Hyp](Ethyl(2-OH))T[NMeL][NMeL][NMeL]D-Piperidide; lactam N-11)	–	2 ×10⁻⁶ cm/s
CC[C@H](C)[C@@H]1NC(=O)[C@H](CC(C)C)N(C)C(=O)CCCN(C)C(=O)C[C@@H](C(=O)N2CCCCC2)NC(=O)[C@H](CC(C)C)N(C)C(=O)[C@H](CC(C)C)N(C)C(=O)[C@H]([C@@H](C)O)NC(=O)[C@H](CC(C)C)N(C)C(=O)[C@H](COCC(C)(C)CO)NC(=O)[C@H](Cc2ccccc2)N(C)C(=O)[C@H](Cc2ccccc2)N(C)C1=O [AP120] ([NMeGABA][NMeL]I[NMeF][NMeF]S(Propyl(2,2-Me2,3-OH))[NMeL]T[NMeL][NMeL]D-Piperidide; lactam N-11)	–	1.1 ×10⁻⁶ cm/s
